{
  "source": "patent US10350213B2",
  "about": "(AI Therapeutics, Inc., priority 2015, dated 2019)",
  "key": {"[1]": {"tested_on": "TSC2−/− mouse embryonic fibroblasts (TSC2−/− MEF) cells", "test": "High throughput cell viability screen (CellTiter-Glo)", "type": "cell-based", "conditions": "72 h", "description": "(§1) Briefly, test compounds (5 μl stock solution, 6×desired final well concentration) were dispensed to 384-well assay plates, TSC2−/− MEF cells (1000 cells per well in 25 μL of media) were added to the plates and the plates were incubated for 72 h (3 days) at 37° C. under an atmosphere of 5% CO2 in a humidified incubator for 3 days. Cell viability was determined with CellTiter-Glo® luminescence assay (Promega) per the manufacturer's instructions. Viability was expressed as a percentage of untreated control cells."}, "[2]": {"tested_on": "K562 (Human myelogenous leukemia)", "test": "CellTiterGlo cell viability assay", "type": "cell-based"}, "[3]": {"tested_on": "122 human cancer cell lines representing 24 tumor types", "test": "3-day CellTiterGlo assay, cancer cell line panel", "type": "cell-based", "conditions": "of 122 human cancer cell lines; sensitive if IC50 less than 500 nM; 3-day assay", "description": "(§2) 35 cell lines were identified as sensitive to apilimod-induced cytotoxicity in this assay. The apilimod-sensitive cells included cells derived from several different cancers including non-Hodgkin's lymphoma, Hodgkin's lymphoma, colorectal cancer, and lung cancer. The most sensitive of those tested were non-Hodgkin's Lymphoma (NHL) cell lines. […] The only NHL subtype not sensitive in this assay was follicular."}, "Vac14": {"molecular_target": "T1, Vac14 (Homo sapiens, UniProt Q08AM6)", "T1 construct": "whole cell lysate prepared from human neuroglioma cells; endogenous in cells; host or cells: human neuroglioma cells (whole cell lysate)", "T1 sequence (Q08AM6 whole entry)": "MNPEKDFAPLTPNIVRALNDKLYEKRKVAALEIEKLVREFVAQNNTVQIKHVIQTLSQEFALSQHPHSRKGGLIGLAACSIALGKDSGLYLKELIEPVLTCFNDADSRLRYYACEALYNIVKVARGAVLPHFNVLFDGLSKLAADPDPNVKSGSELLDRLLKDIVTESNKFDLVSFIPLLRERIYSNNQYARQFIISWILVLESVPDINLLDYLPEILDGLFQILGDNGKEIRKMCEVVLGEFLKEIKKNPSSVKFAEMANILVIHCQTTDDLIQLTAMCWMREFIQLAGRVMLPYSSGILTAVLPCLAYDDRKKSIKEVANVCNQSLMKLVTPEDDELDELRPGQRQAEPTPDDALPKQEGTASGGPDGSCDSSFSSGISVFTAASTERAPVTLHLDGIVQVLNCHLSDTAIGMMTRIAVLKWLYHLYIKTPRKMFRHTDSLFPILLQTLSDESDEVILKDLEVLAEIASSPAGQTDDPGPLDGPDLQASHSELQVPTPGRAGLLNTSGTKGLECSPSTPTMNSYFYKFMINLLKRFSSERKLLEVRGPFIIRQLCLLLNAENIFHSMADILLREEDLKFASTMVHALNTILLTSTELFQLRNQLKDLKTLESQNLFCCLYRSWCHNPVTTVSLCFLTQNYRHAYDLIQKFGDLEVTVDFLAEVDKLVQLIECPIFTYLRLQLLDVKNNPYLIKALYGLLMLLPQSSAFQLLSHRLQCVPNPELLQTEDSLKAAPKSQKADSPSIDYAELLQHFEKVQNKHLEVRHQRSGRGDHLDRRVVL", "T1 sequence (Q9Y2I7 2-2098 partner)": "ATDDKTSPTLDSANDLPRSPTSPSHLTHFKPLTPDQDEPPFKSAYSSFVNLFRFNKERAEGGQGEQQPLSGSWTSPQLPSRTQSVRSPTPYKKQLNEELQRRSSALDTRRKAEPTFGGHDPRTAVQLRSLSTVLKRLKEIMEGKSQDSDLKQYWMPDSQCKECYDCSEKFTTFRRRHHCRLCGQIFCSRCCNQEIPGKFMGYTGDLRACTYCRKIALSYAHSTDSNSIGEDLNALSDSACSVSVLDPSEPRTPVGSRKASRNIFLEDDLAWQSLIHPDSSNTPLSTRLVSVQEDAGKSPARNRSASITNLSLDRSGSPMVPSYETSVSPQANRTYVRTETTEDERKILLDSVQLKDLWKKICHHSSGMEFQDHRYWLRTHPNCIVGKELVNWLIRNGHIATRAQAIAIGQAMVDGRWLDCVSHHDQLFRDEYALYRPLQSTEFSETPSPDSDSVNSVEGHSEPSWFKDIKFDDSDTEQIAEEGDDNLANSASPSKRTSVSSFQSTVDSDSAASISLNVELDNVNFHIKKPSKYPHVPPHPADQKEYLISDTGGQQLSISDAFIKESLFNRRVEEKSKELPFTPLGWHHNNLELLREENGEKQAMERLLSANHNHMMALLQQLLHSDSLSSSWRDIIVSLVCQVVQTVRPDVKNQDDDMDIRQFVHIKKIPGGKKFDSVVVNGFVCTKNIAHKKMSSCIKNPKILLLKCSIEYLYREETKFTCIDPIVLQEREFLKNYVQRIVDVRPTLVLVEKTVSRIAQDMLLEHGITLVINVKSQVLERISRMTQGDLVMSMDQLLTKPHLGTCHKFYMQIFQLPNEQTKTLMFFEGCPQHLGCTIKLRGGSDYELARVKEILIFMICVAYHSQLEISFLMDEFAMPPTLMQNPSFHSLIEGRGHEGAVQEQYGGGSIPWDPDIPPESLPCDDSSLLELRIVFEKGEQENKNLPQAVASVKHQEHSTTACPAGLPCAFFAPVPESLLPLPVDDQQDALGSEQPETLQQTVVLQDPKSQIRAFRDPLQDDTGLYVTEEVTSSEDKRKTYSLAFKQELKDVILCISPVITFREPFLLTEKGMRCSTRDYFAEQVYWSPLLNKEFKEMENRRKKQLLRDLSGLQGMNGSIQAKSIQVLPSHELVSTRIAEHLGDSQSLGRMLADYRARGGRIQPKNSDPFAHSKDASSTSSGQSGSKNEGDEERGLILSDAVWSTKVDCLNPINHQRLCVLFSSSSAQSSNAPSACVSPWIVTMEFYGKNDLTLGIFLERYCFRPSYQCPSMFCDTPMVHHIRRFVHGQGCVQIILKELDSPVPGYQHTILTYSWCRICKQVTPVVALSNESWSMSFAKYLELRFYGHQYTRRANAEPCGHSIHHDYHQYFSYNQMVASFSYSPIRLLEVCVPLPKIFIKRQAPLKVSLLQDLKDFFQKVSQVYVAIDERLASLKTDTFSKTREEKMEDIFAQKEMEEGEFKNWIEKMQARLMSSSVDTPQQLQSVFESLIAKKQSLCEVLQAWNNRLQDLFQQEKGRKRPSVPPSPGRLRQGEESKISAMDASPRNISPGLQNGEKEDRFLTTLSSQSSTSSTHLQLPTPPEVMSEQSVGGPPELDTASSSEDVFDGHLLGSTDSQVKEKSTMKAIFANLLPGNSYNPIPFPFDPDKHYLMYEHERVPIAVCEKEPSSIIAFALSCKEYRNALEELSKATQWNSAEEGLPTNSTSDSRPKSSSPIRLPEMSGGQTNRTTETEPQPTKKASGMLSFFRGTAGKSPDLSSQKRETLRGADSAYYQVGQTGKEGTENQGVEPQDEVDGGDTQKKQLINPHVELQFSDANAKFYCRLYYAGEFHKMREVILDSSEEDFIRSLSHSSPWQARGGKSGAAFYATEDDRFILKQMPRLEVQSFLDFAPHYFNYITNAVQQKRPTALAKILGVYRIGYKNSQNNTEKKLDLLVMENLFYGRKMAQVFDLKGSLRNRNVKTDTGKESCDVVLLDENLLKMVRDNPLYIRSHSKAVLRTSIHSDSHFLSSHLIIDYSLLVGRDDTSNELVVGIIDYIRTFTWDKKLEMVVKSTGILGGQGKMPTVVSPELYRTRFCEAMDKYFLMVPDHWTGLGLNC", "test": "Chemical capture mass spectrometry (CCMS)", "type": "binding", "conditions": "apilimod as competitor ligand", "description": "(§3) This work was performed at Caprotec Bioanalytics GmbH, Berlin Germany. See Michaelis et al., J. Med. Chem., 55 3934-44 (2012) and references cited therein. […] Capture conditions were optimized in whole cell lysate, e.g. minimization of non-specific interactions of the proteins with capture compounds, concentration of reagents and proteins to obtain maximum binding of proteins and capture compounds, etc. […] These specific binders were further subjected to stringent data analysis criteria to determine specificity after unbiased data evaluation. Specific protein binders were ranked according to their fold change (FC) values in the capture experiments."}, "PIKfyve": {"molecular_target": "T2, PIKfyve (Homo sapiens, UniProt Q9Y2I7)", "T2 construct": "whole cell lysate prepared from human neuroglioma cells; endogenous in cells; host or cells: human neuroglioma cells (whole cell lysate)", "test": "Chemical capture mass spectrometry (CCMS)", "type": "binding", "conditions": "apilimod as competitor ligand", "description": "as §3"}, "[4]": {"tested_on": "Jurkat (Human T-cell leukemia)", "test": "CellTiterGlo cell viability assay", "type": "cell-based"}, "[5]": {"tested_on": "THP1 (Human acute monocytic leukemia)", "test": "CellTiterGlo cell viability assay", "type": "cell-based", "conditions": "THP-1"}, "[6]": {"tested_on": "CA46 (Human Burkitt's lymphoma)", "test": "CellTiterGlo cell viability assay", "type": "cell-based", "description": "as §1, §2"}, "[7]": {"tested_on": "HDLM-2 (Human Hodgkin's lymphoma)", "test": "CellTiterGlo cell viability assay", "type": "cell-based", "description": "as §1, §2"}, "[8]": {"tested_on": "H1693 (Human lung carcinoma)", "test": "CellTiterGlo cell viability assay", "type": "cell-based", "conditions": "NCI-H1693", "description": "as §1, §2"}, "[9]": {"tested_on": "DB (Human B-cell lymphoma)", "test": "CellTiterGlo cell viability assay", "type": "cell-based", "conditions": "Human DLBCL-GCB", "description": "as §1, §2"}, "[10]": {"tested_on": "Daudi (Human Burkitt's lymphoma)", "test": "CellTiterGlo cell viability assay", "type": "cell-based", "description": "as §1, §2"}, "[11]": {"tested_on": "HH (Human T-cell lymphoma)", "test": "CellTiterGlo cell viability assay", "type": "cell-based", "description": "as §1, §2"}, "[12]": {"tested_on": "WSU-DLCL2 (Human Diffuse Large B Cell Lymphoma -GCB)", "test": "CellTiterGlo cell viability assay", "type": "cell-based"}, "NHL cell lines": {"tested_on": "NHL cell lines", "test": "7 day cell viability assay, NHL cell lines", "type": "cell-based", "conditions": "7 day assay; for IC50: 168 h", "description": "(§4) This is exemplified in FIG. 2A for the HCT116 colorectal carcinoma cells. […] And all NHL subtypes were sensitive in this assay, including mantle, follicular, Burkitt's, DLBCL-ABC, DLBCL-GCB, and double-hit DLBCL."}, "[13]": {"tested_on": "SW780 (Human Bladder carcinoma (GATOR−/−))", "test": "CellTiterGlo cell viability assay", "type": "cell-based"}, "all cell lines": {"tested_on": "all cell lines", "test": "Longer cell viability assays (3, 5, and 7 days)", "type": "cell-based", "conditions": "168 h, 7-day exposure", "description": "as §4"}, "[14]": {"tested_on": "U-87 MG (Human neuroblastoma)", "test": "CellTiterGlo cell viability assay", "type": "cell-based"}, "[15]": {"tested_on": "PC-3 (Human prostate cancer)", "test": "CellTiterGlo cell viability assay", "type": "cell-based"}, "[16]": {"tested_on": "NCI-H1781 (Human bronchioalveolar)", "test": "CellTiterGlo cell viability assay", "type": "cell-based"}, "[17]": {"tested_on": "non-cancer (normal) cells", "test": "Cell viability assay, non-cancer (normal) cells", "type": "cell-based", "description": "as §4"}, "[18]": {"tested_on": "CAPAN2 (Human pancreatic cancer)", "test": "CellTiterGlo cell viability assay", "type": "cell-based", "conditions": "Capan-2"}, "H4 neuroglioma cells": {"tested_on": "H4 neuroglioma cells", "test": "Endolysosomal (vacuole) phenotype, DIC images", "type": "cell-based, Human", "conditions": "100 nM apilimod, 24 hrs", "description": "PIKfyve produces the lipid products PI(3,5)P2 and PI5P, which in turn serve to establish membrane identity and control endolysosomal dynamics. Studies have shown that the PI(3,5)P2 depletion arising from inhibition of PIKfyve produces a swollen endolysosome phenotype. […] This phenotype was reversible, and cancer cell lines reverted to normal appearance within 3-4 days after drug removal."}, "[19]": {"tested_on": "LnCap (Human prostate cancer)", "test": "CellTiterGlo cell viability assay", "type": "cell-based"}, "[20]": {"tested_on": "H358 (Human lung carcinoma)", "test": "CellTiterGlo cell viability assay", "type": "cell-based", "conditions": "NCI-H358"}, "H4 (Human neuroglioma)": {"tested_on": "H4 (Human neuroglioma)", "test": "CellTiterGlo cell viability assay", "type": "cell-based"}, "[21]": {"tested_on": "M0591K (Human neuroblastoma)", "test": "CellTiterGlo cell viability assay", "type": "cell-based"}, "[22]": {"tested_on": "456 kinases (PIKfyve not included)", "test": "Kinase panel binding screen (DiscoveRx)", "conditions": "screening concentration 1 μM", "description": "Next, apilimod was screened against a comprehensive panel of kinases (PIKfyve not included)."}},
  "note": "Like-named read-outs stand apart in the source and are kept apart here.",
  "data": [
    {"compound": "Cc1cccc(/C=N/Nc2cc(N3CCOCC3)nc(OCCc3ccccn3)n2)c1", "note": "[apilimod]", "values": [
      {"measurement": "viability at 0.5 µM", "setting": "[1]; MEF-EV, 0.5 μM, Mean+/−StDev, n=3, read-out: cell viability (percentage of untreated control cells)", "result": 2.16, "unit": "%"},
      {"measurement": "viability at 5 µM", "setting": "[1]; MEF-EV, 5 μM, Mean+/−StDev, n=3, read-out: cell viability (percentage of untreated control cells)", "result": 1.94, "unit": "%"},
      {"measurement": "IC50", "setting": "[1]; TSC2−/− MEF cells, 10 point dose-response", "result": 19.5, "unit": "nM"},
      {"measurement": "IC50", "setting": "[2]", "result": "> 5000", "unit": "nM"},
      {"measurement": "number of cell lines sensitive to apilimod-induced cytotoxicity", "setting": "[3]", "result": 35},
      {"measurement": "log2 (FC)", "setting": "Vac14; capture compound 0.1 μM", "result": 6.2},
      {"measurement": "log2 (FC)", "setting": "Vac14; capture compound 0.5 μM", "result": 5.6},
      {"measurement": "log2 (FC)", "setting": "Vac14; capture compound 1.0 μM", "result": "Inf."},
      {"measurement": "log2 (FC)", "setting": "Vac14; capture compound 2.0 μM", "result": 3.9},
      {"measurement": "log2 (FC)", "setting": "PIKfyve; capture compound 0.1 μM, human neuroglioma whole cell lysate", "result": 6.3},
      {"measurement": "log2 (FC)", "setting": "PIKfyve; capture compound 0.5 μM", "result": 6.2},
      {"measurement": "log2 (FC)", "setting": "PIKfyve; capture compound 1.0 μM", "result": 4.1},
      {"measurement": "log2 (FC)", "setting": "PIKfyve; capture compound 2.0 μM", "result": 4.3},
      {"measurement": "IC50", "setting": "[4]", "result": 200, "unit": "nM"},
      {"measurement": "IC50", "setting": "[5]", "result": "> 10000", "unit": "nM"},
      {"measurement": "IC50", "setting": "[6]", "result": "> 10000", "unit": "nM"},
      {"measurement": "IC50", "setting": "[7]", "result": "> 1000", "unit": "nM"},
      {"measurement": "IC50", "setting": "[8]", "result": 2000, "unit": "nM"},
      {"measurement": "IC50", "setting": "[9]", "result": 150, "unit": "nM"},
      {"measurement": "IC50", "setting": "[10]", "result": 200, "unit": "nM"},
      {"measurement": "IC50", "setting": "[11]", "result": 3300, "unit": "nM"},
      {"measurement": "IC50", "setting": "[12]; Homo sapiens, WSUDLCL2, 72 h, three-day assay, read-out: IC50 (nM) WSU-DLCL2", "result": 54, "unit": "nM"},
      {"measurement": "IC50", "setting": "[12]; WSUDLCL2, Human DLBCL-GCB, read-out: IC50", "result": 160, "unit": "nM"},
      {"measurement": "share of NHL cell lines sensitive to apilimod", "setting": "NHL cell lines; 32 NHL cell lines tested", "result": 72, "unit": "%"},
      {"measurement": "IC50", "setting": "NHL cell lines; different NHL subtypes, read-out: IC50", "result": "< 125", "unit": "nM"},
      {"measurement": "IC50", "setting": "NHL cell lines; sensitive NHL cell lines, read-out: average IC50", "result": 69, "unit": "nM"},
      {"measurement": "IC50", "setting": "[13]", "result": 1000, "unit": "nM"},
      {"measurement": "IC50", "setting": "all cell lines", "result": "< 125", "unit": "nM"},
      {"measurement": "IC50", "setting": "[14]", "result": "> 10000", "unit": "nM"},
      {"measurement": "IC50", "setting": "[15]", "result": 10000, "unit": "nM"},
      {"measurement": "IC50", "setting": "[16]", "result": "> 20000", "unit": "nM"},
      {"measurement": "IC50", "setting": "[17]", "result": 15800, "unit": "nM"},
      {"measurement": "IC50", "setting": "[18]", "result": "> 2000", "unit": "nM"},
      {"measurement": "cell phenotype", "setting": "H4 neuroglioma cells", "result": "striking swollen endolysosomal (vacuole) phenotype"},
      {"measurement": "IC50", "setting": "[19]", "result": 3000, "unit": "nM"},
      {"measurement": "IC50", "setting": "[20]", "result": "> 2000", "unit": "nM"},
      {"measurement": "IC50", "setting": "H4 (Human neuroglioma)", "result": 250, "unit": "nM"},
      {"measurement": "IC50", "setting": "[21]", "result": "> 10000", "unit": "nM"},
      {"measurement": "binding to kinase panel", "setting": "[22]", "result": "did not bind to any of the 456 kinases tested"}
    ]}
  ]
}
